This note sets out measurements from US7507792B2, “MDA-7 proteins and methods of use thereof” (The Trustees of Columbia University In The City of New York, priority 1993, dated 2009).

Structures are written as SMILES.

For one experiment, the system named is wild-type p53 protein. Kind of experiment: Immunoprecipitation of p53 in H0-1 cells. Conditions: IFN-β 2000 units/ml, MEZ 10 ng/ml. The experiment is classed as cell-based, human. The method, then: (§1) Immunoprecipitation analyses were performed as described previously (Duigou et al., 1991; Su et al., 1993; Jiang et al., 1994b). […] Cultures were starved of methionine for 1 h at 37° C. in methionine-free medium, cells were concentrated by pelleting and labeled for 1 h (p53) or 4 h (p21 and Actin) at 37° in 1 ml of the same medium with 100 μCi of [^35S] (NEN; Express ^35S). After labeling, the cells were washed twice with ice-cold phosphate-buffered saline and lysed for 1 h on ice by the addition of RIPC (20 mM Tris-base, pH 7.5, 500 mM NaCl, 0.05% Nonidet P-40, 100 μg/ml phenylmethylsulfonyl fluoride and 0.02% sodium azide). The lysate was clarified by centrifugation in an Eppendorf microfuge at 10,000×g for 10 min at 4° C. H0-1 samples containing 4×10^6 counts were incubated with 2 μg of p53 monoclonal antibody (Ab1; PAb421) (Oncogene Sciences), WAF1/CIP1 (C-19) (Santa Cruz Biotechnology) (or MDA-6 peptide-derived) rabbit polyclonal IgG or actin monoclonal antibody (Oncogene Sciences) with rocking at 4° C. for 24 h. Labeled cell lysates were also prepared from F0-1, L0-1, SH-1, WM239, FM516-SV, SW480, MeWo, human skin fibroblasts and Saos-2 cells. Samples containing 4×10^6 counts were incubated with 2 μg of the p53 monoclonal antibody Ab1 (PAb421) or Ab3 (PAb240) (Oncogene Sciences). […]

A further experiment relates to p21 protein. Nature of the experiment: Immunoprecipitation of p21 in H0-1 cells. Format: cell-based, human. Conditions: IFN-β 2000 units/ml, MEZ 10 ng/ml. The procedure:
as §1

Consider `C=C(C)[C@@]12O[C@@]3(c4ccccc4)O[C@@H]1[C@@H]1[C@@H]4O[C@]4(CO)[C@@H](O)[C@]4(O)C(=O)C(C)=C[C@H]4[C@@]1(O3)[C@H](C)[C@H]2OC(=O)/C=C/C=C/c1ccccc1` [MEZ, mezerein], for which the “wild-type p53 protein level” value was “no significant change” in the experiment on wild-type p53 protein (24 h) and “decreases” in the experiment on wild-type p53 protein (over 48, 72, 96 h). Further, in the experiment on p21 protein (24 h), the “p21 mRNA and protein” value is “induced”. Besides, the p21 protein level result in the experiment on p21 protein (over 48, 72, 96 h) is reported as “increases”.
